For one data set, the system named is Anesthetized Dogs. Description: Mean arterial pressure (MAP) in anesthetized dogs. The data set is classed as in vivo, dog. The conditions noted are these: iv dose causing a maximum increase in MAP of 20 mm Hg, anesthetized female dogs. In a few lines:
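Female dogs (12–15 kg) with carotid telemetry implants, thiopental 15 mg/kg i.v. then isoflurane (2.5 to 3 volume %) anesthesia; increasing i.v. doses of agonist with return to baseline between doses. MAP from telemetered arterial pressure; ED20 = dose raising MAP by 20 mm Hg, compared with IUP ED5 as selectivity ratio.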

For another data set, the target named is T1, α1B (rat spleen) (Rattus norvegicus, UniProt P15823).
T1 construct: α1B (rat spleen) and α1D (rat aorta) receptors; from tissue; host or cells: rat spleen
T1 sequence (P15823 1-515): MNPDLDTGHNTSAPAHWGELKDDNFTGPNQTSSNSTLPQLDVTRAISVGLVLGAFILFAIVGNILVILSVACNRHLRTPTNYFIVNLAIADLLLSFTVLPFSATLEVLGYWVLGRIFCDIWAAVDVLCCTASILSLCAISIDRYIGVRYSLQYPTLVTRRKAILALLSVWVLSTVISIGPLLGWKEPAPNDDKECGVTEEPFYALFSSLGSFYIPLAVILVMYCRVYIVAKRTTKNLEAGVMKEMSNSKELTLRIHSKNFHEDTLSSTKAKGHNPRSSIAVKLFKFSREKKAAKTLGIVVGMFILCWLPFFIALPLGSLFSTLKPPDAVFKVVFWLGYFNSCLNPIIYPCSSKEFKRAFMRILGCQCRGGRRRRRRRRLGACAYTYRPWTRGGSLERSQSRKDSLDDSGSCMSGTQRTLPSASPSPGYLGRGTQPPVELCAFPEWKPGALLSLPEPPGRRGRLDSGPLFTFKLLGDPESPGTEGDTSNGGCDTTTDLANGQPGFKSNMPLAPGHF
Put plainly: Agonist contraction of smooth muscle tissue, rat spleen. It counts as cell-based. The settings on record: rat spleen; read-out: Agonist Tissue Response (pD2) α1B (rat spleen) (converted).

The next data set concerns the target T2, α1D (rat aorta) (Rattus norvegicus, UniProt P23944).
T2 construct: α1B (rat spleen) and α1D (rat aorta) receptors; from tissue; host or cells: rat aorta strips, endothelium removed
T2 sequence (P23944 1-561): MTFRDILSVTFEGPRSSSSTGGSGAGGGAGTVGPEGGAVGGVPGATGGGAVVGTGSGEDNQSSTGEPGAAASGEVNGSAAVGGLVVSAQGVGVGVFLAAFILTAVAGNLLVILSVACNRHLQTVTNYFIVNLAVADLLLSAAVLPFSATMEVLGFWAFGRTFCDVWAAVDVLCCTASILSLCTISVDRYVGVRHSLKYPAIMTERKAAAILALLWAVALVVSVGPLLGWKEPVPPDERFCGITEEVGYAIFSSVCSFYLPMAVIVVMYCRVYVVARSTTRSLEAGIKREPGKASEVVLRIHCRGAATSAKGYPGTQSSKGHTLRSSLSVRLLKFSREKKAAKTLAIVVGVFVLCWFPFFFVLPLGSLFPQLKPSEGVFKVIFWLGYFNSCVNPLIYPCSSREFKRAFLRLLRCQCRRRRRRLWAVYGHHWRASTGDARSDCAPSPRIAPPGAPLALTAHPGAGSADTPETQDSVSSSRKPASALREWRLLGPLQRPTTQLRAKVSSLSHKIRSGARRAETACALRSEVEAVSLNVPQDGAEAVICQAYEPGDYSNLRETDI
Put plainly: Agonist contraction of smooth muscle tissue, rat aorta. It counts as cell-based. The conditions noted are these: rat aorta, endothelium removed; for EC50: read-out: Agonist Tissue Response (pD2) α1D (rat aorta) (converted).

The target of data set [1] is T3, α1A (rat submaxillary gland) (Rattus norvegicus, UniProt P43140).
T3 construct: α1A (rat submaxillary gland); from tissue; host or cells: rat submaxillary gland
T3 sequence (P43140 1-466): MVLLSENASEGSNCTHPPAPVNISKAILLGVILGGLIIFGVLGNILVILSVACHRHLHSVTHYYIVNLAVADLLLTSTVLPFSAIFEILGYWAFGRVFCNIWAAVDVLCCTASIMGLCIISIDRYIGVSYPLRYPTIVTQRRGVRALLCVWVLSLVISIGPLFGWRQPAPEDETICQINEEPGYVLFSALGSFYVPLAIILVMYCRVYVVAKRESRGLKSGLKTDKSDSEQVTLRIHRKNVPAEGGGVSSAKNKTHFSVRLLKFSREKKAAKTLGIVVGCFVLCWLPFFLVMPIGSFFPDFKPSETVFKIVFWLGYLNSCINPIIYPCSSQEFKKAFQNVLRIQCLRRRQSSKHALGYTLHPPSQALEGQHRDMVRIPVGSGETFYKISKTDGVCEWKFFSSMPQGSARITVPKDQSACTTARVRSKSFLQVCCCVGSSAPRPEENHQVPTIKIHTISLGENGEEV
Put plainly: Radioligand binding with [3H]-prazosin, α1A. The settings on record: rat submaxillary gland, [3H]-prazosin. The method in brief: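 Radioligand binding with [3H]-prazosin: α1A from rat submaxillary gland; α1b hamster receptor and α1d rat receptor, each expressed in mouse fibroblasts.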

Counter-ions that a name gives are not always drawn. Bounds are passed on as bounds.

Here are results for twelve molecules from patent US6503935B1, “Imidazoles and related compounds as α1A agonists” (Abbott Laboratories, priority 1998, dated 2003).

Turning to `CCS(=O)(=O)Nc1cccc(Cc2c[nH]cn2)c1C.O=C(O)/C=C\C(=O)O` [Example 29, N-[3-(1H-imidazol-4-ylmethyl)-2-methylphenyl]ethanesulfonamide, maleate], the “Mean MAP ED20” value with Anesthetized Dogs came out at 202 nmol/kg. In addition, the EC50 on α1B (rat spleen) and at α1D (rat aorta) was > 1000 µM throughout. This molecule yielded a Ki in data set [1] of 0.258 µM.
On to `CN(c1cccc2c1CCCC2c1c[nH]cn1)S(C)(=O)=O` (stereo not drawn) [Example 15, N-[5,6,7,8-tetrahydro-5-(1H-imidazol-4-yl)-1-naphthalenyl]-N-methylmethanesulfonmamide, maleate], for which the “Mean MAP ED20” value in the data set on Anesthetized Dogs is reported as 225 nmol/kg. For the same molecule, the results for the EC50 on α1B (rat spleen) and at α1D (rat aorta) were 2.24 µM and > 1000 µM, respectively. The molecule further showed an inhibition constant Ki in data set [1] of 0.204 µM.
In the same order, the values of `CC(c1cccc(NS(C)(=O)=O)c1)c1c[nH]cn1.O=C(O)/C=C\C(=O)O` (stereo not drawn) [Example 31, N-[3-[1-(1H-imidazol-4-yl)ethyl]phenyl]methanesulfonamide, maleate] are 234 nmol/kg, > 1000 µM, > 1000 µM and 0.837 µM.
In the same order, the values of `CS(=O)(=O)Nc1cccc(Cc2c[nH]cn2)c1.O=C(O)/C=C\C(=O)O` [Example 21, N-[3-(1H-imidazol-4-ylmethyl)phenyl]methanesulfonamide, maleate] are 52.3 nmol/kg, > 1000 µM, > 1000 µM and 0.361 µM.
As for `CCS(=O)(=O)Nc1cccc2c1CCCC2c1c[nH]cn1.O=C(O)/C=C\C(=O)O` (single isomer, unassigned; (-)) [Example 34, (−)-N-[5-(1H-imidazol-4-yl)-5,6,7,8-tetrahydro-1-naphthalenyl]ethanesulfonamide, maleate], the “Mean MAP ED20” value with Anesthetized Dogs (maleate) is >1000 nmol/kg. Further, the EC50 at α1B (rat spleen) was > 1000 µM. Moreover, the “Agonist Tissue Response (pD2) α1D (rat aorta)” value on α1D (rat aorta) is <3.00. In data set [1], this molecule yielded an inhibition constant Ki of 1.3 µM.
`O=C(Nc1cccc2c1CCCC2c1c[nH]cn1)C(F)(F)F` (stereo not drawn) [Example 17, 2,2,2-trifluoro-N-[5-(1H-imidazol-4-yl)-5,6,7,8-tetahydro-1-naphthalenyl]acetamide, maleate]: the “Mean MAP ED20” value with Anesthetized Dogs came out at 216 nmol/kg. In addition, the EC50 was 3.39 µM on α1B (rat spleen) and > 1000 µM on α1D (rat aorta). In data set [1], this molecule had an inhibition constant (Ki) of 0.167 µM.
On the same counts, the results for `Cc1c(Cc2c[nH]cn2)cccc1NS(C)(=O)=O.O=C(O)/C=C\C(=O)O` [Example 28, N-[3-(1H-imidazol-4-ylmethyl)-2-methylphenyl]methanesulfonamide, maleate] are 158 nmol/kg, 7.76 µM, > 1000 µM and 0.525 µM.
On the same counts, the results for `COc1ccc(NS(C)(=O)=O)c2c1C(c1c[nH]cn1)CCC2` (stereo not drawn) [Example 26, N-[5,6,7,8-tetrahydro-(1H-imidazol-4-yl)-4-methoxyy-1-naphthalenyl]methanesulfonamide, maleate] are 1850 nmol/kg, 18.2 µM, > 1000 µM and 1.68 µM.
On the same counts, the results for `C=C(c1cccc(NS(=O)(=O)CC)c1)c1c[nH]cn1` [Example 45, N-{3-[1-(1H-imidazol-4-yl)vinyl]phenyly}ethanesulfonamide, maleate] are 633 nmol/kg, > 1000 µM, > 1000 µM and 0.565 µM.
For `CCS(=O)(=O)Nc1cccc2c1CCCC2c1c[nH]cn1.O=C(O)/C=C\C(=O)O` (stereo not drawn) [Example 12, N-[5-(1H-imidazol-4-yl)-5,6,7,8-tetrahydro-1-naphthalenyl]ethanesulfonamide, maleate], the “Mean MAP ED20” value with Anesthetized Dogs is given as 69.3 nmol/kg. Also, the EC50 on α1B (rat spleen) and at α1D (rat aorta) was > 1000 µM each time. In addition, the Ki in data set [1] was found to be 0.0959 µM.
Take `CS(=O)(=O)Nc1ccc(F)c2c1CCCC2c1c[nH]cn1.O=C(O)/C=C\C(=O)O` (stereo not drawn) [Example 44, N-[4-fluoro-5-(1H-imidazol-4-yl)-5,6,7,8-tetrahydro-1-naphthalenyl]methanesulfonamide, maleate]: the “Mean MAP ED20” value with Anesthetized Dogs came to 632 nmol/kg. Besides, the EC50 on α1B (rat spleen) and on α1D (rat aorta) was > 1000 µM in each case. In addition, the affinity in data set [1], expressed as Ki, was 0.31 µM.
Consider `CCS(=O)(=O)Nc1cccc2c1CCCC2c1c[nH]cn1.O=C(O)/C=C\C(=O)O` (single isomer, unassigned; (+)) [Example 33, (+)-N-[5-(1H-imidazol-4-yl)-5,6,7,8-tetrahydro-1-naphthalenyl]ethanesulfonamide, maleate], for which the “Mean MAP ED20” value in the data set with Anesthetized Dogs (maleate) worked out at 34.0 nmol/kg. Further, the figures for the EC50 on α1B (rat spleen) and on α1D (rat aorta) were 3.8 µM and > 1000 µM, respectively. This molecule also returned an inhibitory constant (Ki) in data set [1] of 0.0468 µM.

Usually Ki stands for a measure of affinity in units of concentration, obtained from inhibition or displacement.
